Laboratory results reported in US20110207723A1, “NOVEL FUSED AMINODIHYDROTHIAZINE DERIVATIVE” (EISAI R&D MANAGEMENT CO., LTD., priority 2008, published 2011).

What follows are molecules tested on Aβ42 production (assay: Quantification of Aβ peptide in culture of neurons from rat fetus brain (Aβ42 ELISA)). Settings: Neuron, 72 h, rat primary neuronal culture (embryonic day 18 Wistar rat cerebral cortex), medium collected three days after addition of compound, read-out: Aβ42 production reducing effect IC50.
Type: cell-based
Method: Quantification of Aβ Peptide in Culture of Neurons from Rat Fetus Brain
Primary neuronal cultures were prepared from the cerebral cortex of embryonic day 18 Wistar rats (Charles River Japan, Yokohama, Japan). Specifically, the embryos were aseptically removed from pregnant rats under ether anesthesia. The brain was isolated from the embryo and immersed in an ice-cold L-15 medium (such as Invitrogen Corp. Cat #11415-064, Carlsbad, Calif., USA, or SIGMA L1518). The cerebral cortex was collected from the isolated brain under a stereoscopic microscope. The cerebral cortex fragments collected were enzymatically treated in an enzyme solution containing 0.25% trypsin (Invitrogen Corp. Cat #15050-065, Carlsbad, Calif., USA) and 0.01% DNase (Sigma D5025, St. Louis, Mo., USA) at 37° C. for 30 minutes to disperse the cells. Here, the enzymatic reaction was stopped by adding inactivated horse serum to the solution. The enzymatically treated solution was centrifuged at 1,500 rpm for five minutes to remove the supernatant. 5 to 10 ml of a medium was added to the resulting cell mass. Neurobasal medium (Invitrogen Corp. Cat #21103-049, Carlsbad, Calif., USA) supplemented with 2% B27 supplement (Invitrogen Corp. Cat #17504-044, Carlsbad, Calif., USA), 25 μM 2-mercaptoethanol (2-ME, WAKO Cat #139-06861, Osaka, Japan), 0.5 mM L-glutamine (Invitrogen Corp. Cat #25030-081, Carlsbad, Calif., USA), and Antibiotics-Antimycotics (Invitrogen Corp. Cat #15240-062, Carlsbad, Calif., USA) was used as the medium (Neurobasal/B27/2-ME). However, the above Neurobasal medium not supplemented with 2-ME (Neurobasal/B27) was used for the assay. The cells were redispersed by mild pipetting of the cell mass to which the medium was added. The cell dispersion was filtered through a 40-μm nylon mesh (Cell Strainer, Cat #35-2340, Becton Dickinson Labware, Franklin Lakes, N.J., USA) to remove the remaining cell mass, and thus a neuronal cell suspension was obtained. The neuronal cell suspension was diluted with the medium and then plated in a volume of 100 μl/well at an initial cell density of 5×10^5 cells/cm^2 in a 96-well polystyrene culture plate pre-coated with poly-L or D-lysine (Falcon Cat #35-3075, Becton Dickinson Labware, Franklin Lakes, N.J., USA coated with poly-L-lysine using the method shown below, or BIOCOAT™ cell environments Poly-D-lysine cell ware 96-well plate, Cat #35-6461, Becton Dickinson Labware, Franklin Lakes, N.J., USA). Poly-L-lysine coating was carried out as follows. 100 μg/ml of a poly-L-lysine (SIGMA P2636, St. Louis, Mo., USA) solution was aseptically prepared with a 0.15 M borate buffer (pH 8.5). […] of the solution was added to the 96-well polystyrene culture plate and incubated at room temperature for one or more hours or at 4° C. overnight or longer. Thereafter, the coated 96-well polystyrene culture plate was washed with sterile water four or more times, and then dried or rinsed with, for example, sterile PBS or medium, and used for cell plating. The plated cells were cultured in the culture plate at 37° C. in 5% CO2-95% air for one day. Then, the total amount of the medium was replaced with a fresh Neurobasal/B27/2-ME medium, and then the cells were cultured for further three days.
The drug was added to the culture plate on Day 4 of culture as follows. The total amount of the medium was removed from the wells, and 180 μl/well of Neurobasal medium not containing 2-ME and containing 2% B-27 (Neurobasal/B27) was added thereto. A solution of the test compound in dimethyl sulfoxide (hereinafter abbreviated as DMSO) was diluted with Neurobasal/B27 to a concentration 10-fold higher than the final concentration. 20 μl/well of the dilution was added to and sufficiently mixed with the medium. The final DMSO concentration was 1% or less. Only DMSO was added to the control group.
The cells were cultured for three days after addition of the compound, and the total amount of the medium was collected. […]
`COC[C@H]1C[C@H]2CSC(N)=N[C@@]2(c2cc(NC(=O)c3cnc(OCF)cn3)ccc2F)CO1` (relative stereo) [Example 14, N-[3-((4aR*,6R*,8aS*)-2-amino-6-methoxymethyl-4,4a,5,6-tetrahydro-7-oxa-3-thia-1-azanaphthalen-8a-yl)-4-fluorophenyl]-5-fluoromethoxypyrazine-2-carboxamide] showed an IC50 of 0.8 nM.
`NC1=N[C@@]2(c3cc(NC(=O)c4ccc(Cl)cn4)ccc3F)CO[C@@H](CO)C[C@H]2CS1` [Example 33, N-[3-((4aR,6R,8aS)-2-amino-6-hydroxymethyl-4,4a,5,6-tetrahydro-7-oxa-3-thia-1-azanaphthalen-8a-yl)-4-fluorophenyl]-5-chloropyridine-2-carboxamide] gave an IC50 of 1.1 nM.
Work on `CO[C@H]1COC[C@]2(c3cc(NC(=O)c4ccc(C#N)cn4)ccc3F)N=C(N)SC[C@H]12` (relative stereo) [Example 30, N-[3-((4aS*,5R*,8aS*)-2-amino-5-methoxy-4,4a,5,6-tetrahydro-7-oxa-3-thia-1-azanaphthalen-8a-yl)-4-fluorophenyl]-5-cyanopyridine-2-carboxamide] yielded an IC50 of 6 nM.
For `NC1=N[C@@]2(c3cc(NC(=O)c4ccc(Cl)cn4)ccc3F)CO[C@@H](CF)C[C@H]2CS1` [Example 45, N-[3-((4aR,6R,8aS)-2-amino-6-fluoromethyl-4,4a,5,6-tetrahydro-7-oxa-3-thia-1-azanaphthalen-8a-yl)-4-fluorophenyl]-5-chloropyridine-2-carboxamide], the IC50 was 2 nM.
In the case of `NC1=N[C@@]2(c3cc(NC(=O)c4ncc(F)cc4F)ccc3F)CO[C@@H](C(F)(F)F)C[C@H]2CS1` (relative stereo) [Example 41, N-[3-((4aR*,6R*,8aS*-2-amino-6-trifluoromethyl-4,4a,5,6-tetrahydro-7-oxa-3-thia-1-azanaphthalen-8a-yl)-4-fluorophenyl]-3,5-difluoropyridine-2-carboxamide], the IC50 is reported as 2 nM.
Work on `NC1=N[C@@]2(c3cc(NC(=O)c4cnc(C(F)F)cn4)ccc3F)COCC[C@H]2CS1` (single isomer, unassigned) [Example 57, N-[3-((4aR*,8aS*)-2-amino-4,4a,5,6-tetrahydro-7-oxa-3-thia-1-azanaphthalen-8a-yl)-4-fluorophenyl]-5-difluoromethylpyrazine-2-carboxamide] yielded an IC50 of 2 nM.
`NC1=N[C@@]2(c3cc(NC(=O)c4ccc(Br)cn4)ccc3F)COCC[C@H]2CS1` (single isomer, unassigned) [Example 50, N-[3-((4aR*,8aS*)-2-amino-4,4a,5,6-tetrahydro-7-oxa-3-thia-1-azanaphthalen-8a-yl)-4-fluorophenyl]-5-bromopyridine-2-carboxamide] showed an IC50 of 2 nM.
`C[C@H]1SC(N)=N[C@@]2(c3cc(NC(=O)c4ccc(C#N)cn4)ccc3F)COCC[C@@H]12` (relative stereo) [Example 31, N-[3-((2R*,4aR*,8aS*)-2-amino-4-methyl-4,4a,5,6-tetrahydro-7-oxa-3-thia-1-azanaphthalen-8a-yl)-4-fluorophenyl]-5-cyanopyridine-2-carboxamide] showed an IC50 of 1.9 nM.
Molecule `COC[C@H]1C[C@H]2CSC(N)=N[C@@]2(c2cc(NC(=O)c3cnc(OC(F)F)cn3)ccc2F)CO1` (relative stereo) [Example 15, N-[3-((4aR*,6R*,8aS*)-2-amino-6-methoxymethyl-4,4a,5,6-tetrahydro-7-oxa-3-thia-1-azanaphthalen-8a-yl)-4-fluorophenyl]-5-difluoromethoxypyrazine-2-carboxamide] has an IC50 of 0.4 nM.
With `NC1=N[C@@]2(c3cc(NC(=O)c4cnc(OC(F)F)cn4)ccc3F)CO[C@@H](C(F)(F)F)C[C@H]2CS1` (relative stereo) [Example 36, N-[3-((4aR*,6R*,8aS*)-2-amino-6-trifluoromethyl-4,4a,5,6-tetrahydro-7-oxa-3-thia-1-azanaphthalen-8a-yl)-4-fluorophenyl]-5-difluoromethoxypyrazine-2-carboxamide] the IC50 was 0.5 nM.
In the case of `COC[C@H]1C[C@H]2CSC(N)=N[C@@]2(c2cc(NC(=O)c3ccc(C#N)cn3)ccc2F)CO1` (relative stereo) [Example 11, N-[3-((4aR*,6R*,8aS*)-2-amino-6-methoxymethyl-4,4a,5,6-tetrahydro-7-oxa-3-thia-1-azanaphthalen-8a-yl)-4-fluorophenyl]-5-cyanopyridine-2-carboxamide], the IC50 is reported as 0.7 nM.
`NC1=N[C@@]2(c3cc(NC(=O)c4cnc(OCF)cn4)ccc3F)CO[C@@H](CF)C[C@H]2CS1` [Example 47, N-[3-((4aR,6R,8aS)-2-amino-6-fluoromethyl-4,4a,5,6-tetrahydro-7-oxa-3-thia-1-azanaphthalen-8a-yl)-4-fluorophenyl]-5-fluoromethoxypyrazine-2-carboxamide] gave an IC50 of 4 nM.
For `C[C@H]1COC[C@]2(c3cc(NC(=O)c4ccc(Cl)cn4)ccc3F)N=C(N)SC[C@H]12` (relative stereo) [Example 26, N-[3-((4aR*,5R*,8aS*)-2-amino-5-methyl-4,4a,5,6-tetrahydro-7-oxa-3-thia-1-azanaphthalen-8a-yl)-4-fluorophenyl]-5-chloropyridine-2-carboxamide], the IC50 was 3 nM.
`NC1=N[C@@]2(c3cc(NC(=O)c4cnc(OC(F)F)cn4)ccc3F)COC[C@@H](F)[C@H]2CS1` [Example 22, N-[3-((4aS,5S,8aS)-2-amino-5-fluoro-4,4a,5,6-tetrahydro-7-oxa-3-thia-1-azanaphthalen-8a-yl)-4-fluorophenyl]-5-difluoromethoxypyrazine-2-carboxamide] showed an IC50 of 4 nM.
For `NC1=N[C@@]2(c3cc(NC(=O)c4ncc(F)cc4F)ccc3F)COCC[C@H]2CS1` (single isomer, unassigned) [Example 51, N-[3-((4aR*,8aS*)-2-amino-4,4a,5,6-tetrahydro-7-oxa-3-thia-1-azanaphthalen-8a-yl)-4-fluorophenyl]-3,5-difluoropyridine-2-carboxamide], the IC50 was 6 nM.
`C[C@H]1C[C@H]2CSC(N)=N[C@@]2(c2cc(NC(=O)c3ccc(Cl)cn3)ccc2F)CO1` (relative stereo) [Example 6, N-[3-((4aR*,6S*,8aS*)-2-amino-6-methyl-4,4a,5,6-tetrahydro-7-oxa-3-thia-1-azanaphthalen-8a-yl)-4-fluorophenyl]-5-chloropyridine-2-carboxamide] showed an IC50 of 1.2 nM.
For `COC[C@H]1C[C@H]2CSC(N)=N[C@@]2(c2cc(NC(=O)c3ccc(Cl)cn3)ccc2F)CO1` (relative stereo) [Example 13, N-[3-((4aR*,6R*,8aS*)-2-amino-6-methoxymethyl-4,4a,5,6-tetrahydro-7-oxa-3-thia-1-azanaphthalen-8a-yl)-4-fluorophenyl]-5-chloropyridine-2-carboxamide], the IC50 was 1 nM.
Molecule `C[C@H]1C[C@H]2CSC(N)=N[C@@]2(c2cc(NC(=O)c3cnc(OC(F)F)cn3)ccc2F)CO1` (relative stereo) [Example 9, N-[3-((4aR*,6S*,8aS*)-2-amino-6-methyl-4,4a,5,6-tetrahydro-7-oxa-3-thia-1-azanaphthalen-8a-yl)-4-fluorophenyl]-5-difluoromethoxypyrazine-2-carboxamide] has an IC50 of 0.6 nM.
For `NC1=N[C@@]2(c3cc(-c4cccnc4F)ccc3F)CO[C@@H](CF)C[C@H]2CS1` [Example 60, (4aR,6R,8aS)-8a-[2-fluoro-5-(2-fluoropyridin-3-yl)phenyl]-6-fluoromethyl-4,4a,5,6,8,8a-hexahydro-7-oxa-3-thia-1-azanaphthalen-2-ylamine], the IC50 was 32 nM.
